Legend:
Assay type in all cases: biochemical
Settings in all cases: at 10 μM; single dose, triplicate
MMP-9 = MMP-9 fluorometric FRET protease assay
MMP-7 = MMP-7 fluorometric FRET protease assay
MMP-2 = MMP-2 fluorometric FRET protease assay
MMP-1 = MMP-1 fluorometric FRET protease assay
MMP-14 = MMP-14 fluorometric FRET protease assay
MMP-8 = MMP-8 fluorometric FRET protease assay
MMP-12 = MMP-12 fluorometric FRET protease assay
MMP-3 = MMP-3 fluorometric FRET protease assay

O=C(O)CCCOc1cccc(CNC(=O)C#Cc2cn(Cc3ccc(C(=O)O)cc3)c(=O)[nH]c2=O)c1 [Compound 4, 4-({5-[2-({[3-(3-carboxypropoxy)phenyl]methyl}carbamoyl)eth-1-yn-1-yl]-2,4-dioxo-1,2,3,4-tetrahydropyrimidin-1-yl}methyl)benzoic acid]
<50 % inhibition at 10 μM: MMP-9 inhibition (MMP-9) | MMP-7 inhibition (MMP-7) | MMP-2 inhibition (MMP-2) | MMP-1 inhibition (MMP-1) | MMP-14 inhibition (MMP-14) | MMP-8 inhibition (MMP-8) | MMP-12 inhibition (MMP-12) | MMP-3 inhibition (MMP-3)

Reference: PMC4506557 (Chemmedchem, 2014)
